Assay results from patent US11945833B2, “Prodrugs of L-BHDU and methods of treating viral infections” (priority 2021, dated 2024).
“Also recorded” adds a separate entry of the source. Where two headings read alike, the source gives them in different places.

What was measured:
[1] = tested on: VZV-ORF57-Luc; test: NuSkin mouse model of VZV replication (adult human skin xenografts), bioluminescence imaging; assay type: in vivo, Athymic Nude mice; settings: for in vivo antiviral activity against VZV (in words): s.c. once daily days 3-9 post-infection, equimolar to cidofovir 10 mg/kg; for dose effective in vivo: subcutaneous (s.c.); for activity compared with cidofovir in repeated in vivo studies: subcutaneous (s.c.) as well as oral route, cidofovir 10 mg/Kg
Description: Mice were treated with vehicle or drugs, and virus yield was measured by bioluminescence imaging. VZV growth rate for individual mice (symbols) and the average for the group (bars) are shown in (A) and (B). […] The overall significance on day 10 post-inoculation (DPI 10) is p=0.0352 (one-way ANOVA). ** p<0.01 for OED-L-BHDU & POM-L-BHDU and (student's t test with Welch's correction). Cidofovir group (i.p.) has an average fold change of 2-5 on DPI 10. (B).

[2] = tested on: VZV-ORF57-Luc; test: Antiviral activity in ARPE-19 cells infected with VZV-ORF57-Luc; assay type: cell-based, Varicella-zoster virus; settings: for in vitro anti-VZV activity (in words): VZV-ORF57-Luc; for EC50: read-out: EC50 against VZV-ORF57-Luc
Description: To enhance the antiviral activity octadecyloxyethyl-L-BHDU (ODE-L-BHDU, 5) and hexadecyloxypropyl-L-BHDU (HDP-L-BHDU, 6), POM-L-BHDU (8), and POC-L-BDHU (14) (FIGS. 1-3, Schemes 1-3) prodrugs were synthesized with modifications to increase bioavailability and cell penetration. Their antiviral activity was evaluated in ARPE-19 cells infected with VZV-ORF57-Luc, a new reporter virus.

[3] = tested on: human fibroblast (HFFs) cells; assay type: cell-based
Description: The cellular toxicity of synthesized analogs was determined on low passage of human fibroblast (HFFs) cells by performing 72 h of neutral red dye uptake and MTT cell proliferation assays.

[4] = tested on: HSV-1; test: Anti-HSV-1 activity in Vero cells; assay type: cell-based, herpes simplex virus
Description: Additionally, all synthesized compounds were also tested in vitro against herpes simplex viruses (HSV-1, oral herpes) in Vero cells, FIG. 8.

[5] = tested on: HSV-2; test: Anti-HSV-2 activity in Vero cells, bioluminescence imaging; assay type: cell-based, herpes simplex virus
Description: HSV-2 yield was determined by bioluminescence imaging. Each point represents the mean±standard deviation of a triplicate sample
Furthermore, antiviral activity of these analogs was tested in vitro against the HSV-2 (genital herpes) in Vero cells using acyclovir as a standard drug reference. […] All other analogs, including L-BDHU, were found ineffective against the HSV-2 (FIG. 11, Table 3). After these findings, it was determined that POM-L-BHDU […] has potential against the HSV-1 & HSV-2. Further in vivo evaluation of POM prodrug of the L-BDHU will confirm activity.

[6] = tested on: VZV; test: Topical treatment of VZV in human skin explant model; settings: formulated in cocoa butter
From the text: (§1) Each compound was formulated in Cocoa Butter and applied topically. POM was formulated in equimolar concentrations to 0.1% L-BHDU.

[7] = tested on: HSV1; test: Topical treatment of HSV1 in human skin explant model; settings: formulated in cocoa butter
From the text: as §1

[8] = tested on: Vero Cells
[9] = Tolerability and weight change in NuSkin mice; settings: male and female mice
[10] = tested on: cell-associated VZV-ORF57-Luc; test: Antiviral screening against cell-associated VZV-ORF57-Luc in ARPE-19 cells; assay type: cell-based, Varicella-zoster virus
Description: Cidofovir and acyclovir are positive controls. Each symbol represents the average of 6 replicate wells; the line is the best fit curve (error bars omitted for clarity).
These studies were performed in the same manner as the efficacy studies described above, except cell-associated VZV-ORF57-Luc, VZV-ORF57-ΔTK, VZV-ORF57-ΔTS and VZV-ORF57-ΔTKTS were used to infect ARPE-19 cells. As before, CDV and ACV were used as positive controls.

Nc1ccn(C[C@@H](CO)OCP(=O)(O)O)c(=O)n1 [Cidofovir, cidofovir, reference compound]
average fold change on DPI 10 ([1]; i.p., day 10 post-inoculation): 2-5 fold

CC(C)(C)C(=O)OCOP(=O)(OCOC(=O)C(C)(C)C)OC[C@H]1OC[C@@H](n2cc(/C=C/Br)c(=O)[nH]c2=O)O1 [POM-L-BHDU]
in vitro anti-VZV activity (in words) [2]: significant anti-VZV activity; also recorded: good antiviral efficacy; also recorded: enhanced antiviral potency in comparison to L-BHDU
in vitro anti-VZV activity (in words) ([2]; listed as POM (8)): better in vitro and in vivo activity in comparison to L-BDHU
CC50 [3]: > 100 µM
effect on cellular proliferation [3]: did not affect cellular proliferation
oral in vivo effectiveness in comparison to cidofovir (ip route) ([1]; oral, FIG. 6B): orally equal effective in comparison to cidofovir
in vivo antiviral activity against VZV (in words) [1]: most active; also recorded: superior antiviral potency compared to L-BHDU; also recorded: retained its antiviral potency; also recorded: better activity compared to parental molecule
in vivo antiviral activity against VZV (in words) ([1]; listed as POM (8)): better in vitro and in vivo activity in comparison to L-BDHU
dose effective in vivo [1]: around 25 mg/kg/day
activity compared with cidofovir in repeated in vivo studies [1]: more active than the cidofovir
EC50 ([4]; read-out: EC50 against HSV-1): 28 nM
anti-HSV-2 activity (in words) [5]: active
anti-HSV-2 activity (in words) ([5]; listed as POM-L-BDHU): significant activity
EC50 ([5]; read-out: EC50 against HSV-2): 1400 nM
prevention of VZV spread in adult human skin [6]: highly effective
prevention of HSV1 spread in adult human skin [7]: highly effective
prevention of HSV1 spread in adult human skin ([7]; listed as L-BHDU-POM): highly effective; also recorded: more effective than topical acyclovir 0.5%
CC50 [8]: > 100 µM
tolerability / toxicity in mice [9]: without significant toxicity
tolerability / toxicity in mice ([9]; listed as POM-L-BDHU): well-tolerated

Nc1nc2c(ncn2COCCO)c(=O)[nH]1 [acyclovir, reference compound]
EC50 ([4]; Human alphaherpesvirus 1, read-out: EC50 against HSV-1): 73.6 nM

CCCCCCCCCCCCCCCCOCCCOP(=O)(O)OC[C@H]1OC[C@@H](n2cc(/C=C/Br)c(=O)[nH]c2=O)O1 [HDP-L-BHDU, hexadecyloxypropyl-L-BHDU]
in vitro anti-VZV activity (in words) [2]: lower antiviral activity relative to L-BHDU; also recorded: lower in vitro activity than the parental molecule
EC50 [2]: 900 nM
CC50 [3]: 10 µM

CCCCCCCCCCCCCCCCCCOCCOP(=O)(O)OC[C@H]1OC[C@@H](n2cc(/C=C/Br)c(=O)[nH]c2=O)O1 [ODE-L-BHDU, L-BHDU-5′-[(2-octadecyloxyethyl)phosphate]]
in vitro anti-VZV activity (in words) [2]: lower antiviral activity relative to L-BHDU
in vitro anti-VZV activity (in words) ([2]; listed as OED-L-BHDU): lower in vitro activity than the parental molecule
EC50 [2]: 68 nM
in vivo antiviral activity against VZV (in words) [1]: better antiviral activity in comparison to L-BHDU; also recorded: most active
in vivo antiviral activity against VZV (in words) ([1]; listed as OED-L-BHDU): superior antiviral potency compared to L-BHDU; also recorded: significantly enhanced in vivo antiviral activity in comparison to L-BHDU
dose effective in vivo [1]: around 25 mg/kg/day
activity compared with cidofovir in repeated in vivo studies [1]: more active than the cidofovir
anti-HSV-1 activity (in words) [4]: good activity
EC50 ([4]; read-out: EC50 against HSV-1): 757 nM
potency against cell-associated VZV-ORF57-Luc compared to CDV or ACV [10]: less potent compared to CDV
concentration at which cellular cytotoxicity was exhibited [8]: 20 µM
tolerability / toxicity in mice [9]: without significant toxicity
tolerability / toxicity in mice ([9]; listed as OED-L-BHDU): well-tolerated

CC(C)OC(=O)OCOP(=O)(OCOC(=O)OC(C)C)OC[C@H]1OC[C@@H](n2cc(/C=C/Br)c(=O)[nH]c2=O)O1 [POC-L-BHDU, Bis (POC) prodrug L-BHDU]
in vitro anti-VZV activity (in words) [2]: significant anti-VZV activity; also recorded: good antiviral efficacy
in vitro anti-VZV activity (in words) ([2]; listed as POC (14)): better in vitro and in vivo activity in comparison to L-BDHU
EC50 [2]: 34 nM
CC50 [3]: > 100 µM
effect on cellular proliferation [3]: did not affect cellular proliferation
in vivo antiviral activity against VZV (in words) [1]: ineffective
in vivo antiviral activity against VZV (in words) ([1]; listed as POC (14)): better in vitro and in vivo activity in comparison to L-BDHU
anti-HSV-1 activity (in words) [4]: good activity
EC50 ([4]; read-out: EC50 against HSV-1): 26 nM
CC50 [8]: > 100 µM
